Legend:
Experiment in all cases: relative viability (nuclei count vs DMSO), 5 days (fraction); higher = more cells survive
NCI-H647 = system: NCI-H647
In short: (§1)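 After 5 days of treatment, lung cancer cells in 1536-well plates were fixed and stained in a single step (final 0.05% Triton X-100, 1% formaldehyde, 1 ug/ml Hoechst) and their nuclei counted on 4× images. Treatment had been applied by pin tool the day after seeding as one drug alone or as a fixed anchor-drug dose with five library-drug doses (not always all listed) in √10 steps. Relative viability is the nuclei count of treated wells divided by that of vehicle wells, and values are medians of duplicate plates.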

NCI-H2347 = system: NCI-H2347
In short: as §1

HCC-78 = system: HCC-78
In short: as §1

LOU-NH91 = system: LOU-NH91
In short: as §1

LCLC-103H = system: LCLC-103H
In short: as §1

LXF-289 = system: LXF-289
In short: as §1

NCI-H1793 = system: NCI-H1793
In short: as §1

LCLC-97TM1 = system: LCLC-97TM1
In short: as §1

NCI-H838 = system: NCI-H838
In short: as §1

PC-3 [JPC-3] = system: PC-3 [JPC-3]
In short: as §1

RERF-LC-KJ = system: RERF-LC-KJ
In short: as §1

HARA = system: HARA
In short: as §1

COR-L23 = system: COR-L23
In short: as §1

LK-2 = system: LK-2
In short: as §1

A-427 = system: A-427
In short: as §1

UMC-11 = system: UMC-11
In short: as §1

NCI-H2405 = system: NCI-H2405
In short: as §1

NCI-H520 = system: NCI-H520
In short: as §1

NCI-H1650 = system: NCI-H1650
In short: as §1

NCI-H1651 = system: NCI-H1651
In short: as §1

201T = system: 201T
In short: as §1

NCI-H23 = system: NCI-H23
In short: as §1

Question: Which results are given for `Cc1csc(=NC2CCCCC2)n1/N=C/c1ccc(O)c(O)c1O` [MIM1] + CS(=O)(=O)N1CCN(Cc2cc3nc(-c4cccc5[nH]ncc45)nc(N4CCOCC4)c3s2)CC1 [Pictilisib] (partner 1 µM)?
Answer: relative viability (NCI-H647; first compound 0.2 µM): 0.379; relative viability (NCI-H647; first compound 0.6325 µM): 0.578; relative viability (NCI-H647; first compound 6.325 µM): 0.42; relative viability (NCI-H647; first compound 20 µM): 0.191; relative viability (NCI-H2347; first compound 0.2 µM): 0.885; relative viability (NCI-H2347; first compound 0.6325 µM): 0.733; relative viability (NCI-H2347; first compound 2 µM): 0.72; relative viability (NCI-H2347; first compound 6.325 µM): 0.619; relative viability (NCI-H2347; first compound 20 µM): 0.359; relative viability (HCC-78; first compound 0.2 µM): 0.251; relative viability (HCC-78; first compound 0.6325 µM): 0.23; relative viability (HCC-78; first compound 2 µM): 0.228; relative viability (HCC-78; first compound 6.325 µM): 0.34; relative viability (HCC-78; first compound 20 µM): 0.185; relative viability (LOU-NH91; first compound 0.2 µM): 0.534; relative viability (LOU-NH91; first compound 0.6325 µM): 0.524; relative viability (LOU-NH91; first compound 2 µM): 0.47; relative viability (LOU-NH91; first compound 6.325 µM): 0.506; relative viability (LOU-NH91; first compound 20 µM): 0.382; relative viability (LCLC-103H; first compound 0.2 µM): 0.721; relative viability (LCLC-103H; first compound 0.6325 µM): 0.574; relative viability (LCLC-103H; first compound 2 µM): 0.608; relative viability (LCLC-103H; first compound 6.325 µM): 0.631; relative viability (LCLC-103H; first compound 20 µM): 0.59; relative viability (LXF-289; first compound 0.2 µM): 0.757; relative viability (LXF-289; first compound 0.6325 µM): 0.689; relative viability (LXF-289; first compound 2 µM): 0.823; relative viability (LXF-289; first compound 6.325 µM): 0.676; relative viability (LXF-289; first compound 20 µM): 0.522; relative viability (NCI-H1793; first compound 0.2 µM): 0.402; relative viability (NCI-H1793; first compound 0.6325 µM): 0.314; relative viability (NCI-H1793; first compound 2 µM): 0.344; relative viability (NCI-H1793; first compound 6.325 µM): 0.34; relative viability (NCI-H1793; first compound 20 µM): 0.217; relative viability (LCLC-97TM1; first compound 0.2 µM): 0.22; relative viability (LCLC-97TM1; first compound 0.6325 µM): 0.178; relative viability (LCLC-97TM1; first compound 2 µM): 0.228; relative viability (LCLC-97TM1; first compound 6.325 µM): 0.18; relative viability (LCLC-97TM1; first compound 20 µM): 0.108; relative viability (NCI-H838; first compound 0.2 µM): 0.415; relative viability (NCI-H838; first compound 0.6325 µM): 0.468; relative viability (NCI-H838; first compound 2 µM): 0.397; relative viability (NCI-H838; first compound 6.325 µM): 0.357; relative viability (NCI-H838; first compound 20 µM): 0.2; relative viability (PC-3 [JPC-3]; first compound 0.2 µM): 0.759; relative viability (PC-3 [JPC-3]; first compound 0.6325 µM): 0.763; relative viability (PC-3 [JPC-3]; first compound 2 µM): 0.707; relative viability (PC-3 [JPC-3]; first compound 6.325 µM): 0.619; relative viability (PC-3 [JPC-3]; first compound 20 µM): 0.459; relative viability (RERF-LC-KJ; first compound 0.2 µM): 0.504; relative viability (RERF-LC-KJ; first compound 0.6325 µM): 0.488; relative viability (RERF-LC-KJ; first compound 2 µM): 0.484; relative viability (RERF-LC-KJ; first compound 6.325 µM): 0.415; relative viability (RERF-LC-KJ; first compound 20 µM): 0.225; relative viability (HARA; first compound 0.2 µM): 0.333; relative viability (HARA; first compound 0.6325 µM): 0.328; relative viability (HARA; first compound 2 µM): 0.476; relative viability (HARA; first compound 6.325 µM): 0.307; relative viability (HARA; first compound 20 µM): 0.124; relative viability (COR-L23; first compound 0.2 µM): 0.692; relative viability (COR-L23; first compound 0.6325 µM): 0.654; relative viability (COR-L23; first compound 2 µM): 0.844; relative viability (COR-L23; first compound 6.325 µM): 0.525; relative viability (COR-L23; first compound 20 µM): 0.217; relative viability (LK-2; first compound 0.2 µM): 0.581; relative viability (LK-2; first compound 0.6325 µM): 0.534; relative viability (LK-2; first compound 6.325 µM): 0.561; relative viability (LK-2; first compound 20 µM): 0.269; relative viability (A-427; first compound 0.2 µM): 0.659; relative viability (A-427; first compound 0.6325 µM): 0.469; relative viability (A-427; first compound 2 µM): 0.671; relative viability (A-427; first compound 6.325 µM): 0.743; relative viability (A-427; first compound 20 µM): 0.214; relative viability (UMC-11; first compound 0.2 µM): 0.753; relative viability (UMC-11; first compound 0.6325 µM): 0.203; relative viability (UMC-11; first compound 2 µM): 0.853; relative viability (UMC-11; first compound 6.325 µM): 0.687; relative viability (UMC-11; first compound 20 µM): 0.17; relative viability (NCI-H2405; first compound 0.2 µM): 0.431; relative viability (NCI-H2405; first compound 0.6325 µM): 0.52; relative viability (NCI-H2405; first compound 2 µM): 0.506; relative viability (NCI-H2405; first compound 6.325 µM): 0.418; relative viability (NCI-H2405; first compound 20 µM): 0.546; relative viability (NCI-H520; first compound 0.2 µM): 0.302; relative viability (NCI-H520; first compound 0.6325 µM): 0.287; relative viability (NCI-H520; first compound 2 µM): 0.295; relative viability (NCI-H520; first compound 6.325 µM): 0.235; relative viability (NCI-H520; first compound 20 µM): 0.246; relative viability (NCI-H1650; first compound 0.2 µM): 0.595; relative viability (NCI-H1650; first compound 0.6325 µM): 0.545; relative viability (NCI-H1650; first compound 2 µM): 0.434; relative viability (NCI-H1650; first compound 6.325 µM): 0.176; relative viability (NCI-H1650; first compound 20 µM): 0.167; relative viability (NCI-H1651; first compound 0.2 µM): 0.646; relative viability (NCI-H1651; first compound 0.6325 µM): 0.646; relative viability (NCI-H1651; first compound 2 µM): 0.75; relative viability (NCI-H1651; first compound 6.325 µM): 0.542; relative viability (NCI-H1651; first compound 20 µM): 0.298; relative viability (201T; first compound 0.2 µM): 0.688; relative viability (201T; first compound 0.6325 µM): 0.659; relative viability (201T; first compound 2 µM): 0.645; relative viability (201T; first compound 6.325 µM): 0.654; relative viability (201T; first compound 20 µM): 0.61; relative viability (NCI-H23; first compound 0.2 µM): 0.563; relative viability (NCI-H23; first compound 2 µM): 0.517; relative viability (NCI-H23; first compound 6.325 µM): 0.467; relative viability (NCI-H23; first compound 20 µM): 0.192

Reference: the supplement of paper PMC10307832
